Measured values: ChEMBL document CHEMBL2440076, “New triarylpyrazoles as broad-spectrum anticancer agents: design, synthesis, and biological evaluation” (Eur J Med Chem, 2013)

Assays:
Type in all cases: functional
MDA-MB-231 = test: Growth inhibition of human MDA-MB-231 cells assessed as cell growth at 10^-5 M after 48 hrs by sulforhodamine B assay; conditions: MDA-MB-231, 48 h, read-out: Activity
NCI-H460 = test: Growth inhibition of human NCI-H460 cells assessed as cell growth at 10^-4 M after 48 hrs by sulforhodamine B assay; conditions: NCI-H460, 48 h, read-out: Activity
K562 = test: Growth inhibition of human K562 cells assessed as cell growth at 10^-6 M after 48 hrs by sulforhodamine B assay; conditions: K562, 48 h, read-out: Activity
MDA-MB-468 [1] = test: Growth inhibition of human MDA-MB-468 cells assessed as cell growth at 10^-4 M after 48 hrs by sulforhodamine B assay; conditions: MDA-MB-468, 48 h, read-out: Activity
BT-549 [2] = test: Growth inhibition of human BT549 cells assessed as cell growth at 10^-4 M after 48 hrs by sulforhodamine B assay; conditions: BT-549, 48 h, read-out: Activity
NCI-H226 = test: Growth inhibition of human NCI-H226 cells assessed as cell growth at 10^-8 M after 48 hrs by sulforhodamine B assay; conditions: NCI-H226, 48 h, read-out: Activity
T47D = test: Growth inhibition of human T47D cells assessed as cell growth at 10^-5 M after 48 hrs by sulforhodamine B assay; conditions: read-out: Activity
RPMI-8226 = test: Growth inhibition of human RPMI8226 cells assessed as cell growth at 10^-7 M after 48 hrs by sulforhodamine B assay; conditions: RPMI-8226, 48 h, read-out: Activity
HCT-116 = test: Growth inhibition of human HCT116 cells assessed as cell growth at 10^-8 M after 48 hrs by sulforhodamine B assay; conditions: HCT-116, 48 h, read-out: Activity
NCI-H522 [3] = test: Growth inhibition of human NCI-H522 cells assessed as cell growth at 10^-7 M after 48 hrs by sulforhodamine B assay; conditions: NCI-H522, 48 h, read-out: Activity
M14 [4] = test: Growth inhibition of human M14 cells assessed as cell growth at 10^-6 M after 48 hrs by sulforhodamine B assay; conditions: M14, 48 h, read-out: Activity
SNB-19 = test: Growth inhibition of human SNB19 cells assessed as cell growth at 10^-8 M after 48 hrs by sulforhodamine B assay; conditions: SNB-19, 48 h, read-out: Activity
IGROV-1 [5] = test: Growth inhibition of human IGROV1 cells assessed as cell growth at 10^-7 M after 48 hrs by sulforhodamine B assay; conditions: IGROV-1, 48 h, read-out: Activity
MCF7 = test: Growth inhibition of human MCF7 cells assessed as cell growth at 10^-7 M after 48 hrs by sulforhodamine B assay; conditions: MCF7, 48 h, read-out: Activity
A549 = test: Growth inhibition of human A549/ATCC cells assessed as cell growth at 10^-6 M after 48 hrs by sulforhodamine B assay; conditions: A549, 48 h, read-out: Activity
DU-145 = test: Growth inhibition of human DU145 cells assessed as cell growth at 10^-5 M after 48 hrs by sulforhodamine B assay; conditions: DU-145, 48 h, read-out: Activity
PC-3 = test: Growth inhibition of human PC3 cells assessed as cell growth at 10^-4 M after 48 hrs by sulforhodamine B assay; conditions: PC-3, 48 h, read-out: Activity
U-251 = test: Growth inhibition of human U251 cells assessed as cell growth at 10^-6 M after 48 hrs by sulforhodamine B assay; conditions: U-251, 48 h, read-out: Activity
M14 [6] = test: Growth inhibition of human M14 cells assessed as cell growth at 10^-7 M after 48 hrs by sulforhodamine B assay; conditions: M14, 48 h, read-out: Activity
HCT-15 = test: Growth inhibition of human HCT15 cells assessed as cell growth at 10^-4 M after 48 hrs by sulforhodamine B assay; conditions: HCT-15, 48 h, read-out: Activity
OVCAR-3 = test: Growth inhibition of human OVCAR3 cells assessed as cell growth at 10^-4 M after 48 hrs by sulforhodamine B assay; conditions: OVCAR-3, 48 h, read-out: Activity
SR = test: Growth inhibition of human SR cells assessed as cell growth at 10^-7 M after 48 hrs by sulforhodamine B assay; conditions: read-out: Activity
OVCAR-4 = test: Growth inhibition of human OVCAR4 cells assessed as cell growth at 10^-6 M after 48 hrs by sulforhodamine B assay; conditions: OVCAR-4, 48 h, read-out: Activity
COLO 205 [7] = test: Growth inhibition of human COLO205 cells assessed as cell growth at 10^-4 M after 48 hrs by sulforhodamine B assay; conditions: COLO 205, 48 h, read-out: Activity
MDA-MB-468 [8] = test: Growth inhibition of human MDA-MB-468 cells assessed as cell growth at 10^-5 M after 48 hrs by sulforhodamine B assay; conditions: MDA-MB-468, 48 h, read-out: Activity
BT-549 [9] = test: Growth inhibition of human BT549 cells assessed as cell growth at 10^-6 M after 48 hrs by sulforhodamine B assay; conditions: BT-549, 48 h, read-out: Activity
MOLT-4 = test: Growth inhibition of human MOLT4 cells assessed as cell growth at 10^-4 M after 48 hrs by sulforhodamine B assay; conditions: MOLT-4, 48 h, read-out: Activity
SF-295 = test: Growth inhibition of human SF295 cells assessed as cell growth at 10^-6 M after 48 hrs by sulforhodamine B assay; conditions: SF-295, 48 h, read-out: Activity
NCI-H522 [10] = test: Growth inhibition of human NCI-H522 cells assessed as cell growth at 10^-6 M after 48 hrs by sulforhodamine B assay; conditions: NCI-H522, 48 h, read-out: Activity
CCRF-CEM = test: Growth inhibition of human CCRF-CEM cells assessed as cell growth at 10^-4 M after 48 hrs by sulforhodamine B assay; conditions: read-out: Activity
LOX IMVI = test: Growth inhibition of human LOXIMVI cells assessed as cell growth at 10^-7 M after 48 hrs by sulforhodamine B assay; conditions: read-out: Activity
CAKI-1 = test: Growth inhibition of human CAKI-1 cells assessed as cell growth at 10^-4 M after 48 hrs by sulforhodamine B assay; conditions: CAKI-1, 48 h, read-out: Activity
A498 = test: Growth inhibition of human A498 cells assessed as cell growth at 10^-8 M after 48 hrs by sulforhodamine B assay; conditions: A498, 48 h, read-out: Activity
SN12C = test: Growth inhibition of human SN12C cells assessed as cell growth at 10^-6 M after 48 hrs by sulforhodamine B assay; conditions: read-out: Activity
IGROV-1 [11] = test: Growth inhibition of human IGROV1 cells assessed as cell growth at 10^-5 M after 48 hrs by sulforhodamine B assay; conditions: IGROV-1, 48 h, read-out: Activity
UO-31 = test: Growth inhibition of human UO31 cells assessed as cell growth at 10^-4 M after 48 hrs by sulforhodamine B assay; conditions: UO-31, 48 h, read-out: Activity
COLO 205 [12] = test: Growth inhibition of human COLO205 cells assessed as cell growth at 10^-7 M after 48 hrs by sulforhodamine B assay; conditions: COLO 205, 48 h, read-out: Activity

| SMILES | growth at 10 µM (MDA-MB-231) [%] | growth at 100 µM (NCI-H460) [%] | growth at 1 µM (K562) [%] | growth at 100 µM (MDA-MB-468 [1]) [%] | growth at 100 µM (BT-549 [2]) [%] | growth at 0.01 µM (NCI-H226) [%] | growth at 10 µM (T47D) [%] | growth at 0.1 µM (RPMI-8226) [%] | growth at 0.01 µM (HCT-116) [%] | growth at 0.1 µM (NCI-H522 [3]) [%] | growth at 1 µM (M14 [4]) [%] | growth at 0.01 µM (SNB-19) [%] | growth at 0.1 µM (IGROV-1 [5]) [%] | growth at 0.1 µM (MCF7) [%] | growth at 1 µM (A549) [%] | growth at 10 µM (DU-145) [%] | growth at 100 µM (PC-3) [%] | growth at 1 µM (U-251) [%] | growth at 0.1 µM (M14 [6]) [%] | growth at 100 µM (HCT-15) [%] | further results |
| --- | --- | --- | --- | --- | --- | --- | --- | --- | --- | --- | --- | --- | --- | --- | --- | --- | --- | --- | --- | --- | --- |
| COc1cc(-c2nn(-c3cccc(NC(=O)c4ccccc4)c3)cc2-c2ccncc2)ccc1Cl | 7 | 5 | 21 | -27 | 28 | 97 | 31 | 96 | 97 | 85 | 37 | 99 | 91 | 87 | 37 | 13 | 3 | 40 | 92 | 12 | growth at 100 µM (OVCAR-3): -51%; growth at 0.1 µM (SR): 79%; growth at 1 µM (OVCAR-4): 51%; growth at 100 µM (COLO 205 [7]): -54%; growth at 10 µM (MDA-MB-468 [8]): -15%; growth at 1 µM (BT-549 [9]): 53%; growth at 100 µM (MOLT-4): 33%; growth at 1 µM (SF-295): 15%; growth at 1 µM (NCI-H522 [10]): 15%; growth at 100 µM (CCRF-CEM): 16%; growth at 0.1 µM (LOX IMVI): 94%; growth at 100 µM (CAKI-1): 7%; growth at 0.01 µM (A498): 92%; growth at 1 µM (SN12C): 64%; growth at 10 µM (IGROV-1 [11]): 28%; growth at 100 µM (UO-31): 24%; growth at 0.1 µM (COLO 205 [12]): 95% |
| COc1cc(-c2nn(-c3cccc(NC(=O)c4ccc(N5CCOCC5)c(C(F)(F)F)c4)c3)cc2-c2ccncc2)ccc1Cl | -30 | 1 | 11 | -53 | 9 | 102 | 19 | 88 | 99 | 51 | 35 | 92 | 81 | 76 | 31 | 13 | -5 | 25 | 76 | 2 | growth at 100 µM (OVCAR-3): -33%; growth at 0.1 µM (SR): 19%; growth at 1 µM (OVCAR-4): 49%; growth at 100 µM (COLO 205 [7]): -75%; growth at 10 µM (MDA-MB-468 [8]): -64%; growth at 1 µM (BT-549 [9]): 54%; growth at 100 µM (MOLT-4): 2%; growth at 1 µM (SF-295): 4%; growth at 1 µM (NCI-H522 [10]): 17%; growth at 100 µM (CCRF-CEM): 8%; growth at 0.1 µM (LOX IMVI): 78%; growth at 100 µM (CAKI-1): -4%; growth at 0.01 µM (A498): 90%; growth at 1 µM (SN12C): 51%; growth at 10 µM (IGROV-1 [11]): -7%; growth at 100 µM (UO-31): -13%; growth at 0.1 µM (COLO 205 [12]): 101% |
